# Laboratory results published in patent US9340590B2 (priority 2011, dated 2016).
# pIC50: −log10 of the molar value. Read-outs that look alike come from different tables or passages of the source. Positions of bridges follow the written chain, without caps; N, C: chain ends. Non-standard residues stand in square brackets, D forms with d. Residues, ends and D or L forms follow the SMILES beside them. Arg(Me2s) = CN=C(NC)NCCC[C@H](N)C(=O)O
# Key:
# Assay in all cases: cell-based
# hNav1.7 [1] = molecular target: T1, hNav1.7 (Homo sapiens, UniProt Q15858); type: cell-based
# T1 sequence (Q15858 whole entry, looked up): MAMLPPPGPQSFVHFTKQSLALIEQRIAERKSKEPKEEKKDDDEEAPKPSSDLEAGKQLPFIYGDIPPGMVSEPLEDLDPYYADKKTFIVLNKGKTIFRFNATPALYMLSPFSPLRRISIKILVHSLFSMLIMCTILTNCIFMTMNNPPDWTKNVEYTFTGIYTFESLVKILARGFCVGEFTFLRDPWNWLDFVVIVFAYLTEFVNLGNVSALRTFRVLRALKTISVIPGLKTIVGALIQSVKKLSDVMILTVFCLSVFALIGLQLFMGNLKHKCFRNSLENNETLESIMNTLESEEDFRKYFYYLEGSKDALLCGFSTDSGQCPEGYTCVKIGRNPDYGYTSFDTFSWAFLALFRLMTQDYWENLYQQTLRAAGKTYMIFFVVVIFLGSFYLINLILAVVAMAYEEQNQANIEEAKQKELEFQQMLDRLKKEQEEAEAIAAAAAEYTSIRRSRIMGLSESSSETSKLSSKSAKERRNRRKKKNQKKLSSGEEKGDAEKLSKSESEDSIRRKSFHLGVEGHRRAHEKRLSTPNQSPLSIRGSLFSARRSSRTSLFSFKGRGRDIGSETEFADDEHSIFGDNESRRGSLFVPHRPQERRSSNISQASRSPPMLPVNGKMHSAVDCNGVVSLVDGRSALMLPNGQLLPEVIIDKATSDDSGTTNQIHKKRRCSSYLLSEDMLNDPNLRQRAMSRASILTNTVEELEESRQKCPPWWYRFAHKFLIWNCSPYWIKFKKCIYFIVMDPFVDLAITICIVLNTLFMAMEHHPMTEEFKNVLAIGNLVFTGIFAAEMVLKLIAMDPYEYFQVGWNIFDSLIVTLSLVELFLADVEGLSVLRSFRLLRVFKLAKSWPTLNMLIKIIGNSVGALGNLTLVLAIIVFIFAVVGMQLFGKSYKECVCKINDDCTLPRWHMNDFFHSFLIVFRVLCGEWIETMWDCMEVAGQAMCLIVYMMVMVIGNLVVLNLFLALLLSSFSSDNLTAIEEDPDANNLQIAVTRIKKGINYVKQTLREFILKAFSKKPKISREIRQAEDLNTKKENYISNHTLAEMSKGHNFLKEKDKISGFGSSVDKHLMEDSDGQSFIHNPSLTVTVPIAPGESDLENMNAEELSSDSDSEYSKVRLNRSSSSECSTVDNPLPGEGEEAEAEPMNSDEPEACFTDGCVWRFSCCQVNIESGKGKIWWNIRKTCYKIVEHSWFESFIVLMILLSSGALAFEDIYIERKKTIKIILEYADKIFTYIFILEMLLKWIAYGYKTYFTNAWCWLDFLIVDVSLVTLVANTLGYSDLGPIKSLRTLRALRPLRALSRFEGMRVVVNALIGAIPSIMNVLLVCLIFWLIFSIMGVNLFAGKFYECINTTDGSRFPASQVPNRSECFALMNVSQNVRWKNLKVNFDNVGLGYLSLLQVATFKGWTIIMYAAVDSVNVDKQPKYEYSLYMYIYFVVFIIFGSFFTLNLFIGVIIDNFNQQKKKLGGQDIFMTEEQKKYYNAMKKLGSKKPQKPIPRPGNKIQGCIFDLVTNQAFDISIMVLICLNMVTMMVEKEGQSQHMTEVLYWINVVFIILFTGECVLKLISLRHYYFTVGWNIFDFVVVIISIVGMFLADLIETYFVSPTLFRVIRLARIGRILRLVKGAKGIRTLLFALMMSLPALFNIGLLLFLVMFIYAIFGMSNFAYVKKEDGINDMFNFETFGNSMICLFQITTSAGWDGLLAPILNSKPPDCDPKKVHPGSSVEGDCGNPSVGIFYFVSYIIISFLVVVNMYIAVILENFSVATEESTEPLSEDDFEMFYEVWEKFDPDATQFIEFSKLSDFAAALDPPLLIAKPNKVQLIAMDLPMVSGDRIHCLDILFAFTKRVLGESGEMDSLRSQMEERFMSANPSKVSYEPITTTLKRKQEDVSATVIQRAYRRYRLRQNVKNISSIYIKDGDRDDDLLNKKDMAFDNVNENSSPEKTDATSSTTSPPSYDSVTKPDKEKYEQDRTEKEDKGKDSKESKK
# hNav1.5 [2] = molecular target: T2, hNav1.5 (Homo sapiens, UniProt Q14524)
# T2 sequence (Q14524 whole entry, looked up): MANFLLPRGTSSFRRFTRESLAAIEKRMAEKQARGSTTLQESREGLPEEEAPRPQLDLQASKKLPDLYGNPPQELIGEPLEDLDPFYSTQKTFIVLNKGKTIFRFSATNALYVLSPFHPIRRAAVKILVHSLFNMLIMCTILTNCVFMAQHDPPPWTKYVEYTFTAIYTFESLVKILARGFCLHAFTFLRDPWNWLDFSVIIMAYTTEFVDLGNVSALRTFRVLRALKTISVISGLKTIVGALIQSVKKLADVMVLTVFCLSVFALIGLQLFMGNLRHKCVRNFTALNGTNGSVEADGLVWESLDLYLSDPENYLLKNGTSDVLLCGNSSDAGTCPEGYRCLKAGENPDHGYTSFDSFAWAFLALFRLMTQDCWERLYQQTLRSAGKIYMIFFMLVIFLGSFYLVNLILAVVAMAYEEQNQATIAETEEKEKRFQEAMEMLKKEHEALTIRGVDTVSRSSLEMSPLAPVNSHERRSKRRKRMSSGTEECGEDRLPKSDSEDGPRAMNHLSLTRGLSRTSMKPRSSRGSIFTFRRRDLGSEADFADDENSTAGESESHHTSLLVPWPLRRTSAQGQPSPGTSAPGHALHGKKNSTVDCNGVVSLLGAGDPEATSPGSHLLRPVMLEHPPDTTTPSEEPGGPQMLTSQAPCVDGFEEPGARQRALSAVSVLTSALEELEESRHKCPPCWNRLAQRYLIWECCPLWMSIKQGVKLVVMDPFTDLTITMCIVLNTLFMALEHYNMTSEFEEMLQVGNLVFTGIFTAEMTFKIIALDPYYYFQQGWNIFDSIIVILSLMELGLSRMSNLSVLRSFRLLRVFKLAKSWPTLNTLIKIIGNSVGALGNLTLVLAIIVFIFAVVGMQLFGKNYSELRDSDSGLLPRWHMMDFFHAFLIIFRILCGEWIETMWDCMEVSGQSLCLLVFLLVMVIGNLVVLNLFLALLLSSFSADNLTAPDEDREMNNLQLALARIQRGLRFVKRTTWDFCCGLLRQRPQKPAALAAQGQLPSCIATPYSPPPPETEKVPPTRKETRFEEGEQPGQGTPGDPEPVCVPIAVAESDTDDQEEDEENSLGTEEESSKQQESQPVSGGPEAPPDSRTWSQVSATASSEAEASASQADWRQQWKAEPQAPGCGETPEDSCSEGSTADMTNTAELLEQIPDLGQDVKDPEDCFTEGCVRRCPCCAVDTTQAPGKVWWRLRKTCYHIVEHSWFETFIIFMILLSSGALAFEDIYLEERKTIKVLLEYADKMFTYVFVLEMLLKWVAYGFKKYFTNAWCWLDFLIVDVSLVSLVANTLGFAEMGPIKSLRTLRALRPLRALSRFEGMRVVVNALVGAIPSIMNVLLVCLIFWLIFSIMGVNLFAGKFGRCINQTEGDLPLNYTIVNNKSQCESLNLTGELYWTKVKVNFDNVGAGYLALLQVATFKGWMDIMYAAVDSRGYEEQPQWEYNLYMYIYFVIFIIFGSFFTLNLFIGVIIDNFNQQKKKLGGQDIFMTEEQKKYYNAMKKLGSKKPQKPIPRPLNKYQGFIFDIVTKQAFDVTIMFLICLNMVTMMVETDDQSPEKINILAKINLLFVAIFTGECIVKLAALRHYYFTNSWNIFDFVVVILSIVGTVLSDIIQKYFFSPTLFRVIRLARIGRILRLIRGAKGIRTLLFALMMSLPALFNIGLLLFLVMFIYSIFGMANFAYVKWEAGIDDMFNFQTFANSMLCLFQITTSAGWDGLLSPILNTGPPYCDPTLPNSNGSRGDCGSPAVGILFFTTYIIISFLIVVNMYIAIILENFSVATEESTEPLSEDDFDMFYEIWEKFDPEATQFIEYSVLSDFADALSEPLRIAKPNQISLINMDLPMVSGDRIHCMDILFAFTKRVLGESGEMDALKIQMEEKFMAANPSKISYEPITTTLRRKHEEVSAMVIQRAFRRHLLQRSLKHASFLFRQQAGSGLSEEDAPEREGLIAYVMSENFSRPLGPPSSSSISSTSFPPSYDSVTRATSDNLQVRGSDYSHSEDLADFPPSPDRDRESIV
# hNav1.5 [3] = molecular target: T2, hNav1.5; details: IonWorks Quattro, read-out: IWQ Use Nav1.5
# hNav1.7 [4] = molecular target: T1, hNav1.7; details: Nav1.7 Use IC50
# hNav1.3 = hNav1.3 (Homo sapiens, UniProt Q9NY46); details: IonWorks Quattro, read-out: IWQ Use Nav1.3
# [5] = clamped to −110 mV, depolarized to −10 mV, 5 min after compound, n=2
# [6] = IonWorks Quattro, use-dependent block, hNav1.7, read-out: IWQ Use Nav1.7
SMILES,pIC50 (hNav1.7 [1]),pIC50 (hNav1.5 [2]),"pIC50 (hNav1.5 [3]; use-dependent block, hNav1.5)",pIC50 (hNav1.7 [4]),"pIC50 (hNav1.3; use-dependent block, hNav1.3)",pIC50 (hNav1.5 [3]; [5]),pIC50 (hNav1.3; [5]),pIC50 (hNav1.7 [1]; [6])
"CC[C@H](C)[C@@H]1NC(=O)[C@@H]2CSSC[C@@H]3NC(=O)[C@H](C(C)C)NC(=O)[C@H](CC(C)C)NC(=O)[C@H](CC(N)=O)NC(=O)[C@@H]4CCCN4C(=O)[C@H](CCCNC(=N)N)NC(=O)[C@H](CSSC[C@H](NC(=O)[C@@H](N)CC(=O)O)C(=O)N[C@@H](CC(C)C)C(=O)NCC(=O)N[C@@H](Cc4ccccc4)C(=O)N[C@@H](CCSC)C(=O)N[C@@H](CCC(=O)O)C(=O)N[C@@H](CCCCN)C(=O)N2)NC(=O)[C@H](CSSC[C@@H](C(=O)N[C@@H](CCCCN)C(=O)N[C@@H](Cc2ccc(O)cc2)C(=O)N[C@H](C(=O)N[C@@H](Cc2ccccc2)C(N)=O)C(C)C)NC(=O)[C@H](Cc2c[nH]c4ccccc24)NC(=O)[C@H](CCCCN)NC(=O)[C@H](Cc2cnc[nH]2)NC(=O)[C@H]([C@@H](C)O)NC(=O)[C@H](CCCNC(=N)N)NC(=O)[C@H](CO)NC3=O)NC(=O)[C@H](CCCCN)NC(=O)[C@H](CC(=O)O)NC(=O)[C@H](CC(N)=O)NC(=O)[C@H](CC(=O)O)NC(=O)[C@@H]2CCCN2C1=O [[Glu7]GpTx-1(1-34)] (H-DCLGFMEKCIPDNDKCCRPNLVCSRTHKWCKYVF-NH2; disulfide 2-17, 9-23, 16-30)",6.06,< 5.00,4.72,7.01,5.77,–,–,–
"CC[C@H](C)[C@@H]1NC(=O)[C@@H]2CSSC[C@@H]3NC(=O)[C@H](C(C)C)NC(=O)[C@H](CC(C)C)NC(=O)[C@H](CC(N)=O)NC(=O)[C@@H]4CCCN4C(=O)[C@H](CCCNC(=N)N)NC(=O)[C@H](CSSC[C@H](NC(=O)[C@@H](N)CC(=O)O)C(=O)N[C@@H](CCC(=O)O)C(=O)NCC(=O)N[C@@H](Cc4ccccc4)C(=O)N[C@@H](CCSC)C(=O)N[C@@H](CCCNC(=N)N)C(=O)N[C@@H](CCCCN)C(=O)N2)NC(=O)[C@H](CSSC[C@@H](C(=O)N[C@@H](CCCCN)C(=O)N[C@@H](Cc2ccc(O)cc2)C(=O)N[C@H](C(=O)N[C@@H](Cc2ccccc2)C(N)=O)C(C)C)NC(=O)[C@H](Cc2c[nH]c4ccccc24)NC(=O)[C@H](CCCCN)NC(=O)[C@H](Cc2cnc[nH]2)NC(=O)[C@H]([C@@H](C)O)NC(=O)[C@H](CCCNC(=N)N)NC(=O)[C@H](CO)NC3=O)NC(=O)[C@H](CCCCN)NC(=O)[C@H](CC(=O)O)NC(=O)[C@H](CC(N)=O)NC(=O)[C@H](CC(=O)O)NC(=O)[C@@H]2CCCN2C1=O [SEQ ID NO: 19] (H-DCEGFMRKCIPDNDKCCRPNLVCSRTHKWCKYVF-NH2; disulfide 2-17, 9-23, 16-30)",–,< 5.00,–,7.39,–,4.98,6.08,–
"CC[C@H](C)[C@@H]1NC(=O)[C@@H]2CSSC[C@@H]3NC(=O)[C@H](C(C)C)NC(=O)[C@H](CC(C)C)NC(=O)[C@H](CC(N)=O)NC(=O)[C@@H]4CCCN4C(=O)[C@H](CCCNC(=N)N)NC(=O)[C@H](CSSC[C@H](NC(=O)[C@@H](N)CC(=O)O)C(=O)N[C@@H](CC(C)C)C(=O)NCC(=O)N[C@@H](Cc4ccccc4)C(=O)N[C@@H](CCSC)C(=O)N[C@@H](CCCNC(=N)N)C(=O)N[C@@H]([C@@H](C)O)C(=O)N2)NC(=O)[C@H](CSSC[C@@H](C(=O)N[C@@H](CCCCN)C(=O)N[C@@H](Cc2ccc(O)cc2)C(=O)N[C@H](C(=O)N[C@@H](Cc2ccccc2)C(N)=O)C(C)C)NC(=O)[C@H](Cc2c[nH]c4ccccc24)NC(=O)[C@H](CCCCN)NC(=O)[C@H](Cc2c[nH]cn2)NC(=O)[C@H]([C@@H](C)O)NC(=O)[C@H](CCCNC(=N)N)NC(=O)[C@H](CO)NC3=O)NC(=O)[C@H](CCCCN)NC(=O)[C@H](CC(=O)O)NC(=O)[C@H](CC(N)=O)NC(=O)[C@H](CC(=O)O)NC(=O)[C@@H]2CCCN2C1=O [[Thr8]GpTx-1(1-34)] (H-DCLGFMRTCIPDNDKCCRPNLVCSRTHKWCKYVF-NH2; disulfide 2-17, 9-23, 16-30)",–,< 5.00,5.01,8.05,6.82,–,–,6.46
CC[C@H](C)[C@@H]1NC(=O)[C@@H]2CSSC[C@@H]3NC(=O)[C@H](C(C)C)NC(=O)[C@H](CC(C)C)NC(=O)[C@H](CC(N)=O)NC(=O)[C@@H]4CCCN4C(=O)[C@H](CCCNC(=N)N)NC(=O)[C@H](CSSC[C@H](NC(=O)[C@@H](N)CC(=O)O)C(=O)N[C@@H](CC(C)C)C(=O)NCC(=O)N[C@@H](Cc4ccccc4)C(=O)N[C@@H](CCSC)C(=O)N[C@@H](CCCNC(=N)N)C(=O)N[C@@H](CCCCN(C)C)C(=O)N2)NC(=O)[C@H](CSSC[C@@H](C(=O)N[C@@H](CCCCN)C(=O)N[C@@H](Cc2ccc(O)cc2)C(=O)N[C@H](C(=O)N[C@@H](Cc2ccccc2)C(N)=O)C(C)C)NC(=O)[C@H](Cc2c[nH]c4ccccc24)NC(=O)[C@H](CCCCN)NC(=O)[C@H](Cc2c[nH]cn2)NC(=O)[C@H]([C@@H](C)O)NC(=O)[C@H](CCCNC(=N)N)NC(=O)[C@H](CO)NC3=O)NC(=O)[C@H](CCCCN)NC(=O)[C@H](CC(=O)O)NC(=O)[C@H](CC(N)=O)NC(=O)[C@H](CC(=O)O)NC(=O)[C@@H]2CCCN2C1=O [[K(Me2)8]GpTx-1(1-34)],–,< 5.00,5.02,8.40,6.74,–,–,6.72
"CC[C@H](C)[C@@H]1NC(=O)[C@@H]2CSSC[C@@H]3NC(=O)[C@H](C(C)C)NC(=O)[C@H](CC(C)C)NC(=O)[C@H](CC(N)=O)NC(=O)[C@@H]4CCCN4C(=O)[C@H](CCCNC(=N)N)NC(=O)[C@H](CSSC[C@H](NC(=O)[C@@H](N)CC(=O)O)C(=O)N[C@@H](CC(C)C)C(=O)NCC(=O)N[C@@H](Cc4ccccc4)C(=O)N[C@@H](CCSC)C(=O)N[C@@H](CCCNC(=N)N)C(=O)N[C@@H](CCCNC(=NC)NC)C(=O)N2)NC(=O)[C@H](CSSC[C@@H](C(=O)N[C@@H](CCCCN)C(=O)N[C@@H](Cc2ccc(O)cc2)C(=O)N[C@H](C(=O)N[C@@H](Cc2ccccc2)C(N)=O)C(C)C)NC(=O)[C@H](Cc2c[nH]c4ccccc24)NC(=O)[C@H](CCCCN)NC(=O)[C@H](Cc2c[nH]cn2)NC(=O)[C@H]([C@@H](C)O)NC(=O)[C@H](CCCNC(=N)N)NC(=O)[C@H](CO)NC3=O)NC(=O)[C@H](CCCCN)NC(=O)[C@H](CC(=O)O)NC(=O)[C@H](CC(N)=O)NC(=O)[C@H](CC(=O)O)NC(=O)[C@@H]2CCCN2C1=O [[SDMA8]GpTx-1(1-34)] (H-DCLGFMR[Arg(Me2s)]CIPDNDKCCRPNLVCSRTHKWCKYVF-NH2; disulfide 2-17, 9-23, 16-30)",–,< 5.00,5.04,8.30,6.70,–,–,6.70
CC[C@H](C)[C@@H]1NC(=O)[C@@H]2CSSC[C@@H]3NC(=O)[C@H](C(C)C)NC(=O)[C@H](CC(C)C)NC(=O)[C@H](CC(N)=O)NC(=O)[C@@H]4CCCN4C(=O)[C@H](CCCNC(=N)N)NC(=O)[C@H](CSSC[C@H](NC(=O)[C@@H](N)CC(=O)O)C(=O)N[C@@H](CC(C)C)C(=O)NCC(=O)N[C@@H](Cc4ccccc4)C(=O)N[C@@H](CCSC)C(=O)N[C@@H](CCCNC(=NC)NC)C(=O)N[C@@H](CCCCN)C(=O)N2)NC(=O)[C@H](CSSC[C@@H](C(=O)N[C@@H](CCCCN)C(=O)N[C@@H](Cc2ccc(O)cc2)C(=O)N[C@H](C(=O)N[C@@H](Cc2ccccc2)C(N)=O)C(C)C)NC(=O)[C@H](Cc2c[nH]c4ccccc24)NC(=O)[C@H](CCCCN)NC(=O)[C@H](Cc2c[nH]cn2)NC(=O)[C@H]([C@@H](C)O)NC(=O)[C@H](CCCNC(=N)N)NC(=O)[C@H](CO)NC3=O)NC(=O)[C@H](CCCCN)NC(=O)[C@H](CC(=O)O)NC(=O)[C@H](CC(N)=O)NC(=O)[C@H](CC(=O)O)NC(=O)[C@@H]2CCCN2C1=O [[SDMA7]GpTx-1(1-34)],–,4.85,4.99,8.22,6.92,–,–,6.62
"CC[C@H](C)[C@@H]1NC(=O)[C@@H]2CSSC[C@@H]3NC(=O)[C@H](C(C)C)NC(=O)[C@H](CC(C)C)NC(=O)[C@H](CC(N)=O)NC(=O)[C@@H]4CCCN4C(=O)[C@H](CCCNC(=N)N)NC(=O)[C@H](CSSC[C@H](NC(=O)[C@@H](N)CC(=O)O)C(=O)N[C@@H](CC(C)C)C(=O)NCC(=O)N[C@@H](Cc4ccccc4)C(=O)N[C@@H](Cc4c[nH]c5ccccc45)C(=O)N[C@@H](CCCNC(=N)N)C(=O)N[C@@H](CCCCN)C(=O)N2)NC(=O)[C@H](CSSC[C@@H](C(=O)N[C@@H](CCCCN)C(=O)N[C@@H](Cc2ccc(O)cc2)C(=O)N[C@H](C(=O)N[C@@H](Cc2ccccc2)C(N)=O)C(C)C)NC(=O)[C@H](Cc2c[nH]c4ccccc24)NC(=O)[C@H](CCCCN)NC(=O)[C@H](Cc2cnc[nH]2)NC(=O)[C@H]([C@@H](C)O)NC(=O)[C@H](CCCNC(=N)N)NC(=O)[C@H](CO)NC3=O)NC(=O)[C@H](CCCCN)NC(=O)[C@H](CC(=O)O)NC(=O)[C@H](CC(N)=O)NC(=O)[C@H](CC(=O)O)NC(=O)[C@@H]2CCCN2C1=O [SEQ ID NO: 170] (H-DCLGFWRKCIPDNDKCCRPNLVCSRTHKWCKYVF-NH2; disulfide 2-17, 9-23, 16-30)",7.89,5.43,–,7.66,–,5.45,8.70,–
